Experimental data from ChEMBL document CHEMBL1201862, “PubChem BioAssay data set” (2004).
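Results reflect a 48-hour exposure of cells in 96-well plates to compound at five concentrations. Abbreviation: GI50, concentration required for 50% inhibition of growth.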 Active and inactive are the calls of the source. No stated cut-off is given here; in the data, active = GI50 up to about 1.1 µM and inactive = higher.

Assays:
Experiment in all cases: DTP human tumour cell line panel, 48 h
[1] = system: A549
[2] = system: EKVX
[3] = system: HL-60
[4] = system: HOP-62
[5] = system: K562
[6] = system: LOX IMVI
[7] = system: MOLT-4
[8] = system: NCI/ADR-RES
[9] = system: OVCAR-4
[10] = system: OVCAR-5
[11] = system: SF-539
[12] = system: SK-MEL-28
[13] = system: SK-MEL-2
[14] = system: SN12C
[15] = system: SNB-19
[16] = system: SR
[17] = system: IGROV-1
[18] = system: SK-MEL-5
[19] = system: SK-OV-3
[20] = system: TK-10

Compound	GI50 [1]	GI50 [2]	GI50 [3]	GI50 [4]	GI50 [5]	GI50 [6]	GI50 [7]	GI50 [8]	GI50 [9]	GI50 [10]	GI50 [11]	GI50 [12]	GI50 [13]	GI50 [14]	GI50 [15]	GI50 [16]	GI50 [17]	GI50 [18]	GI50 [19]	GI50 [20]
O=[N+]([O-])C(=C(Nc1ccccc1)Nc1ccccc1)/C(Cl)=C(\Cl)Br	20.7 µM (inactive)	14.8 µM (inactive)	1.76 µM (inactive)	22 µM (inactive)	2.92 µM (inactive)	3.27 µM (inactive)	3.1 µM (inactive)	9.48 µM (inactive)	11.9 µM (inactive)	10.6 µM (inactive)	22 µM (inactive)	13.6 µM (inactive)	18 µM (inactive)	13.7 µM (inactive)	> 10 µM (inactive)	5.01 µM (inactive)	–	–	–	–
Cc1cc(C)c(OC(=O)Nc2cccc3ccccc23)c(-c2ccccc2)c1	32.6 µM (inactive)	38.3 µM (inactive)	21.1 µM (inactive)	65.8 µM (inactive)	41.8 µM (inactive)	24.8 µM (inactive)	3.81 µM (inactive)	26.9 µM (inactive)	31.3 µM (inactive)	73.8 µM (inactive)	57 µM (inactive)	31.3 µM (inactive)	> 10 µM (inactive)	38.2 µM (inactive)	–	19.6 µM (inactive)	36.5 µM (inactive)	16.4 µM (inactive)	67.6 µM (inactive)	33.4 µM (inactive)
O=C(NC(CS)C(=O)O)c1cccc2c(=O)c3ccccc3[nH]c12 (centres undefined)	> 100 µM (inactive)	> 100 µM (inactive)	> 100 µM (inactive)	> 100 µM (inactive)	> 100 µM (inactive)	> 100 µM (inactive)	> 100 µM (inactive)	> 100 µM (inactive)	> 100 µM (inactive)	> 100 µM (inactive)	–	> 100 µM (inactive)	> 100 µM (inactive)	> 100 µM (inactive)	> 100 µM (inactive)	> 100 µM (inactive)	> 100 µM (inactive)	> 100 µM (inactive)	> 100 µM (inactive)	> 100 µM (inactive)
CC(=O)OCC1OC(SC2=N/C(=C\c3cc4c(=O)c5ccccc5sc4s3)C(=O)N2c2ccccc2)C(OC(C)=O)C(OC(C)=O)C1OC(C)=O (centres undefined)	–	65 µM (inactive)	20.1 µM (inactive)	> 100 µM (inactive)	53.1 µM (inactive)	55.1 µM (inactive)	20.6 µM (inactive)	> 100 µM (inactive)	74.3 µM (inactive)	62.4 µM (inactive)	–	> 100 µM (inactive)	32 µM (inactive)	> 100 µM (inactive)	40.4 µM (inactive)	42.2 µM (inactive)	> 100 µM (inactive)	> 100 µM (inactive)	–	> 100 µM (inactive)
COc1cc2cc(C(=O)N3CC(CCl)c4ccc([N+](C)(C)Cc5ccc([N+](=O)[O-])cc5)cc43)[nH]c2c(OC)c1OC (centres undefined)	1.8 µM (inactive)	5.69 µM (inactive)	2.04 µM (inactive)	4.92 µM (inactive)	1.92 µM (inactive)	–	2.1 µM (inactive)	1.71 µM (inactive)	3.09 µM (inactive)	3.87 µM (inactive)	1.78 µM (inactive)	9.29 µM (inactive)	2.05 µM (inactive)	4.55 µM (inactive)	8.53 µM (inactive)	0.363 µM (active)	1.97 µM (inactive)	1.71 µM (inactive)	2.28 µM (inactive)	1.86 µM (inactive)
O=C(Nc1ccc(Br)cc1)c1c(-c2ccccc2)c2ccc(O)cc2oc1=O	–	> 10 µM (inactive)	> 10 µM (inactive)	> 10 µM (inactive)	> 10 µM (inactive)	> 10 µM (inactive)	> 10 µM (inactive)	> 10 µM (inactive)	> 10 µM (inactive)	> 10 µM (inactive)	> 10 µM (inactive)	> 10 µM (inactive)	> 10 µM (inactive)	> 10 µM (inactive)	–	> 10 µM (inactive)	> 10 µM (inactive)	> 10 µM (inactive)	> 10 µM (inactive)	> 10 µM (inactive)
O=c1oc2cccnc2n1CCN1CCN(c2ccc(Oc3ccccc3)cc2)CC1	> 100 µM (inactive)	> 100 µM (inactive)	8.04 µM (inactive)	> 100 µM (inactive)	12.4 µM (inactive)	> 100 µM (inactive)	19.7 µM (inactive)	32.5 µM (inactive)	15.7 µM (inactive)	> 100 µM (inactive)	> 100 µM (inactive)	> 100 µM (inactive)	> 100 µM (inactive)	–	> 100 µM (inactive)	8.71 µM (inactive)	> 100 µM (inactive)	10.2 µM (inactive)	> 100 µM (inactive)	61.8 µM (inactive)
COC(=O)[C@@H]1[C@H](OC(C)=O)CCC2[C@@]3(C[C@@H](c4ccoc4)O[C@@H]3OC)[C@H](C)CC[C@]21C(=O)OC (some centres undefined)	> 25 µM (inactive)	> 25 µM (inactive)	19 µM (inactive)	–	> 25 µM (inactive)	> 25 µM (inactive)	> 25 µM (inactive)	> 25 µM (inactive)	> 25 µM (inactive)	> 25 µM (inactive)	> 25 µM (inactive)	–	> 25 µM (inactive)	> 25 µM (inactive)	> 25 µM (inactive)	> 25 µM (inactive)	> 25 µM (inactive)	> 25 µM (inactive)	> 25 µM (inactive)	> 25 µM (inactive)
CC(=O)Oc1ccc2[nH]c3c(C)c4cccc-4ccc3c2c1	2.26 µM (inactive)	2.2 µM (inactive)	2.72 µM (inactive)	2.29 µM (inactive)	3.79 µM (inactive)	2.18 µM (inactive)	3.13 µM (inactive)	2.28 µM (inactive)	1.84 µM (inactive)	2.02 µM (inactive)	–	2.31 µM (inactive)	1.96 µM (inactive)	2.47 µM (inactive)	2.04 µM (inactive)	4.59 µM (inactive)	1.57 µM (inactive)	1.83 µM (inactive)	2.02 µM (inactive)	1.87 µM (inactive)
O=C(O)CN1C(=O)c2ccc(NC(=O)C(=O)O)cc2S1(=O)=O	> 100 µM (inactive)	> 100 µM (inactive)	> 100 µM (inactive)	> 100 µM (inactive)	> 100 µM (inactive)	> 100 µM (inactive)	> 100 µM (inactive)	> 100 µM (inactive)	> 100 µM (inactive)	> 100 µM (inactive)	–	> 100 µM (inactive)	> 100 µM (inactive)	> 100 µM (inactive)	> 100 µM (inactive)	> 100 µM (inactive)	> 100 µM (inactive)	> 100 µM (inactive)	> 100 µM (inactive)	> 100 µM (inactive)
C[C@@H](c1ccccc1)N1C[C@@H](c2ccc3c(c2)OCO3)[C@@H]2C(=O)CCC[C@@H]21	57.9 µM (inactive)	69.3 µM (inactive)	34.1 µM (inactive)	> 100 µM (inactive)	64.1 µM (inactive)	69 µM (inactive)	30.3 µM (inactive)	81.7 µM (inactive)	43.8 µM (inactive)	> 100 µM (inactive)	–	28.6 µM (inactive)	41 µM (inactive)	59.8 µM (inactive)	75 µM (inactive)	42.8 µM (inactive)	41.1 µM (inactive)	36.8 µM (inactive)	> 100 µM (inactive)	> 100 µM (inactive)
COc1ccc2c(c1)[C@@]13CCN4CC5=CCO[C@H]6CC(=O)N2[C@H]1[C@H]6[C@H]5C[C@H]43	> 100 µM (inactive)	44.4 µM (inactive)	18.1 µM (inactive)	> 100 µM (inactive)	–	> 100 µM (inactive)	18.6 µM (inactive)	47.2 µM (inactive)	> 100 µM (inactive)	> 100 µM (inactive)	> 100 µM (inactive)	80.5 µM (inactive)	> 100 µM (inactive)	> 100 µM (inactive)	> 100 µM (inactive)	27.5 µM (inactive)	34.9 µM (inactive)	> 100 µM (inactive)	> 100 µM (inactive)	76.6 µM (inactive)
COc1ccc(CNc2nc(NCc3ccc(OC)cc3)nc(NC(C)C)n2)cc1	6.24 µM (inactive)	25 µM (inactive)	4.08 µM (inactive)	6.56 µM (inactive)	6.98 µM (inactive)	6.89 µM (inactive)	42.7 µM (inactive)	4.58 µM (inactive)	20.3 µM (inactive)	20.2 µM (inactive)	9.08 µM (inactive)	46.8 µM (inactive)	6.5 µM (inactive)	–	84.1 µM (inactive)	3.84 µM (inactive)	7.53 µM (inactive)	4.85 µM (inactive)	93.3 µM (inactive)	17.9 µM (inactive)
CCCCOP(=O)(OCCCC)C(NS(=O)(=O)c1ccccc1)(C(=O)OCC)C(F)(F)F (centres undefined)	42.8 µM (inactive)	30.1 µM (inactive)	19.3 µM (inactive)	22.7 µM (inactive)	20.5 µM (inactive)	31.4 µM (inactive)	20.2 µM (inactive)	26 µM (inactive)	27.7 µM (inactive)	31 µM (inactive)	19.5 µM (inactive)	34.1 µM (inactive)	–	29.1 µM (inactive)	29.2 µM (inactive)	26.7 µM (inactive)	23.3 µM (inactive)	18.1 µM (inactive)	58.5 µM (inactive)	33.9 µM (inactive)
Cc1cc(Cl)ccc1C(=O)c1ccc2ccccc2c1C(=O)O	> 100 µM (inactive)	–	> 100 µM (inactive)	–	> 100 µM (inactive)	–	> 100 µM (inactive)	> 100 µM (inactive)	> 100 µM (inactive)	> 100 µM (inactive)	> 100 µM (inactive)	> 100 µM (inactive)	> 100 µM (inactive)	–	> 100 µM (inactive)	> 100 µM (inactive)	> 100 µM (inactive)	> 100 µM (inactive)	–	> 100 µM (inactive)
